Source: publication PMC12133000 (PLOS One, 2025)

System: rat liver microsomes (RLMs)
Assay: Michaelis-Menten kinetics (Km) of rivaroxaban in RLMs
Type: in vitro ADME
Settings: read-out: Km of rivaroxaban
Method: Three samples from each group were incubated, centrifuged, and separated as described earlier. The LC–MS/MS method was used to detect rivaroxaban metabolites. Km was calculated by applying the Michaelis–Menten equation using Prism v. 9.0 (GraphPad Software, MA, USA).

Km: 17.6 µM
Structure (SMILES): O=C(NC[C@H]1CN(c2ccc(N3CCOCC3=O)cc2)C(=O)O1)c1ccc(Cl)s1 [rivaroxaban, Rivaroxaban]
